PMC12194305, “Assessing Bioconcentration and Biotransformation of BDE-47 In Vitro: The Relevance of Bioavailable and Intracellular Concentrations” (Journal of Xenobiotics, 2025)
Several values for one entry are separate records, joined by “and”; a condition that tells them apart may be missing. Equal entries are not always repeated.

Columns and labels:
[1] = Experimental determination of free bioavailable concentration (Cfree,exp) in exposure medium by SPME; format: in vitro ADME; conditions: for Cfree, exp: 28 °C, 72 h
Experimental: In parallel with the exposure experiment for the evaluation of bioaccumulation and biotransformation described in the previous sections, an experiment was performed to estimate experimentally the free bioavailable concentration (Cfree,exp) in the test medium. For this purpose, an experiment was designed to simulate the test conditions, and Cfree was determined using solid-phase microextraction (SPME), following the fiber method developed by Henneberger et al..
PDMS-coated glass microfibers (30 µm thick, 13.19 µL/m coating volume) were cut into 1.5 cm pieces and cleaned in methanol for more than 24 h prior to the experiment, with the solvent replaced at least three times. The cleaned and dried fiber was placed in a glass vial with 1 mL of sample exposure medium containing 1.8 and 2.6 mg·L^−1 BDE-47. Three replicates were prepared for each condition. A portion of the initial sample was stored at −20 °C until analysis. The vials were then sealed and incubated with rotation at 28 °C for 72 h until equilibrium of BDE-47 distribution among the fiber, medium, and binding to the predominant serum protein of the culture (Bovine serum albumin, BSA) was reached. Once at equilibrium, the fibers were extracted from the vials and desorbed with 400 µL isooctane for 24 h with rotation. Finally, the extract was analyzed by GC-MS-µECD, as described in Section 2.5. The concentration of BDE-47 in the initial sample (Cmed,0h) and in the resulting media after equilibration (Cmed,eq) was determined according to the procedure described in Section 2.5, to confirm the actual mass balance.
Since this study evaluates and discusses the behavior of BDE-47 in comparison to observations from a previous study with phenanthrene, as explained in the introduction section, the experimental Cfree of phenanthrene was also determined, as it had not been measured previously. In this case, the difference in the process was that PA fibers (36 µm thick, 16.71 µL/m coating volume) were used. Samples of 10 and 20 mg·L^−1 PHE were prepared, and the fibers and samples were incubated for 24–48 h until equilibrium was reached, and desorbed with hexane for 3 h.
To determine the free concentration, concentration in the SPME fiber (Cfiber) was first estimated using Equation (1) from the concentration measured in the desorption extract (Cdes), the desorption volume (Vdes) and the coating volume of the fiber (Vfiber). This volume was estimated according to the coating volume and the length of the fiber.(1) Cfiber=Cdes·Vdes/Vfiber
Next, Cfree,exp was determined at the time before the SPME fiber was added to the system, according to Equation (2). For this, the concentration measured in the fiber equilibrated with the medium (PDMS-BDE-47-BSA or PA-PHE-BSA), the concentration measured in the initial sample (Cmed,0h), and the partition constant of the equilibrium formed between the fiber and the medium (log DPDMS/medium; BDE-47 = 5.84 [25]; log DPA/medium; PHE = 6.69 [26]) were used.(2) Cfree=Cmed,0h·Vsample/Dfiber/medium·Cmed,0h·Vsample/Cfiber−Vfiber

[2] = Abiotic (volatilization) losses, contaminated medium without cells; format: physicochemical
Experimental: A total of 2 × 10^6 ZFL cells were plated in P100 glass dishes and incubated for 24 h under standard culture conditions. Subsequently, the culture medium was replaced with a contaminated medium, which, according to the cell viability assay, maintained viability above 70% by the end of the exposure period (Section 2.3). Cells were exposed to 1.8 and 2.6 mg⋅L^−1 for 24, 48 and 72 h, in two independent experiments. Parallel experiments were conducted under identical conditions to assess losses: one set included cells without contaminated medium, and another consisted of contaminated medium without cells (“no cells”). The obtained pellets were collected from all exposure time, dried under a gentle stream of nitrogen and weighed on a precision analytical balance (±0.00001 g). Finally, the dried cell pellets and their corresponding medium collected at all exposure times, including the starting medium (“t = 0 h”), were stored at −20 °C until analysis.
(§1) One of the objectives was to assess whether cell lines can be used within the BCF-IVIVE model, relying on intrinsic clearance in vitro, to estimate the biotransformation rate which is subsequently extrapolated to adult fish. This approach is based on the model developed by Nichols et al. and is endorsed by the OECD guideline 319A [10] and OECD 2018a. Briefly, the log10-transformed substrate experimental concentrations in the medium (Cmed) were plotted against time, and the first-order elimination rate constant (ke, h^−1) was determined as −2.3 × slope of the log-linear decline. Black et al. indicate that a correction to the elimination rate constant (ke) should be applied when the following conditions are met: (i) abiotic losses from volatilization, calculated by comparing the recovery of negative control samples (“no cells”) at each exposure time to the initial time, fall outside the acceptable range of 80–120%, (ii) the loss process follows first order kinetics, and (iii) the ratio of ke and the volatilization rate constant (kvolat) is below 10 (ke/kvolat < 10). Then, the constant corrected for losses due to volatilization (ke,loss) was determined as −2.3 × the difference of the slopes of the sample and the loss control of the log-linear descent. The in vitro constant was then extrapolated to obtain an in vivo metabolization constant (kMET). This was done using experimental cell concentration (CHEP, 10^6 cells/mL) and default parameters derived from rainbow trout. In this study, in addition to estimating BCF with the official model parameters derived from rainbow trout (BCFIVIVE,RT), BCF was also estimated with the literature-derived parameters for zebrafish (BCFIVIVE,ZF), due to the use of ZFL cells. Finally, the BCF was estimated by the ratio of concentration in the organism to concentration in the medium, following the standardized model. The concentration in the organism was predicted using the one-compartment model given by Arnot and Gobas, which includes the rate constants describing chemical uptake (k1), loss through the gills (k2), fecal egestion (kE), growth rate (kG) and metabolization rate (kMET). Except for kMET, which is estimated experimentally in vitro, the rest are only dependent on the log KOW of the compound. On the other hand, due to the use of cell lines, the free concentration estimated was introduced instead of the total concentration in the medium (CW,TOT).

rainbow trout [3] = experiment: IVIVE-BCF model with rainbow trout default parameters; format: in vitro ADME; conditions: for BCFIVIVE, RT: ZFL cells, rainbow trout parameters
Source text: as §1

[4] = design: method as in PMID 37289209; conditions: initial exposure 20 mg·L^−1, HepG2 cell assay at 37 °C; cited from earlier work
rainbow trout [5] = experiment: IVIVE-BCF model with rainbow trout default parameters; format: in vitro ADME; conditions: k1 and k2 from experimental Ccell and Cfree

Q: For `Brc1ccc(Oc2ccc(Br)cc2Br)c(Br)c1` [BDE-47, 2,2′,4,4′-tetrabromodiphenyl ether], which “% Cfree, exp” value ([1]; Cnom 1.8 mg·L^−1, % of total concentration) is on record?
A: Its value is 0.06% and 0.06 ± 0.03%.

Q: And the “Cfree, exp” value ([1]; Cnom 1.8 mg·L^−1, PDMS fiber)?
A: Its value is “(0.4 ± 0.2) µg·L^−1”.

Q: And the “% Cfree, exp” value ([1]; Cnom 2.6 mg·L^−1, % of total concentration)?
A: Its value is 0.08% and 0.079 ± 0.003%.

Q: And the “Cfree, exp” value ([1]; Cnom 2.6 mg·L^−1, PDMS fiber)?
A: Its value is “(1.14 ± 0.04) µg·L^−1”.

Q: What about the “Recovery of losses from volatilization (% Rec. Vol.)” value (from here on “Recovery of losses … (% Rec. Vol.)”) ([2]; 24h, 1.8 mg·L-1, no cells vs time 0h) of the same compound?
A: The value was 76%.

Q: And the “Recovery of losses … (% Rec. Vol.)” value ([2]; 24h, 2.6 mg·L-1, no cells vs time 0h)?
A: The value was 73%.

Q: What about the “Recovery of losses … (% Rec. Vol.)” value ([2]; 48h, 1.8 mg·L-1, no cells vs time 0h) of the same compound?
A: The value was 69%.

Q: What about the “Recovery of losses … (% Rec. Vol.)” value ([2]; 48h, 2.6 mg·L-1, no cells vs time 0h) of the same compound?
A: The value was 63%.

Q: What about the “Recovery of losses … (% Rec. Vol.)” value ([2]; 72h, 1.8 mg·L-1, no cells vs time 0h) of the same compound?
A: The value was 68%.

Q: And the “Recovery of losses … (% Rec. Vol.)” value ([2]; 72h, 2.6 mg·L-1, no cells vs time 0h)?
A: The value was 52%.

Q: What about the “decrease in Cmedium,no cells with respect to nominal concentration” value ([2]; Cnominal 1.8 mg·L^−1, cell-free sample) of the same compound?
A: Its value is 29%.

Q: And the “decrease in Cmedium,no cells with respect to nominal concentration” value ([2]; Cnominal 2.6 mg·L^−1, cell-free sample)?
A: The value was 37%.

Q: And the CLH (rainbow trout [3]; 1.8 mg·L-1, RT)?
A: Its CLH is 8.217 mL/h/kg.

Q: And the “CLIN VITRO, INT” value (rainbow trout [3]; 1.8 mg·L-1, RT)?
A: Its value is 0.0220 mL/h/106 cells.

Q: And the kMET (rainbow trout [3]; 1.8 mg·L-1, RT)?
A: The kMET was 0.0092 day⁻¹.

Q: What about the CLH (rainbow trout [3]; 2.6 mg·L-1, RT) of the same compound?
A: The CLH was 1.38 mL/h/kg.

Q: And the “CLIN VITRO, INT” value (rainbow trout [3]; 2.6 mg·L-1, RT)?
A: Its value is 0.0037 mL/h/106 cells.

Q: What about the kMET (rainbow trout [3]; 2.6 mg·L-1, RT) of the same compound?
A: The kMET was 0.0015 day⁻¹.

Q: What about the “BCFIVIVE, RT” value (rainbow trout [3]; Cnominal 1.8 mg·L^−1) of the same compound?
A: The value was 7221 L/kg.

Q: And the “BCFIVIVE, RT” value (rainbow trout [3]; Cnominal 2.6 mg·L^−1)?
A: The value was 14,184 L·kg^−1.

Q: And the volatilization loss [4]?
A: The volatilization loss was 14%.

Q: What about the “BCFIVIVE, RT, exp” value (rainbow trout [5]; Cnominal 1.8 mg·L^−1) of the same compound?
A: The value was 26,306 L·kg^−1.

Q: What about the “BCFIVIVE, RT, exp” value (rainbow trout [5]; Cnominal 2.6 mg·L^−1) of the same compound?
A: Its value is 48,635 L·kg^−1.
